Several values for one entry are separate records, joined by “and”; a condition that tells them apart may be missing. Equal values may be shown once. Activity calls are given as the source filed them.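 How the source made its calls: active means curve reaches 40% activation over neutral controls at an AC40 no higher than the top valid tested concentration; inconclusive means no clear call, values can overlap the other calls; inactive means signal moving opposite to the expected increase, and the rest.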

This is an account of results in PubChem BioAssay AID977607 (Broad Institute, 2014).

This assay has as its system INS-1E GLuc insulin secretion reporter, luminescence, 2-3 h. Nature of the assay: activators of glucose-dependent insulin secretion, dose response, cell-based, INS-1E, Gaussia luciferase, luminescence, cherry-pick, set 2 (AID 977607).
For the compound `CCCc1nnc2n1N=C(c1ccc(OC)c(OC)c1)CS2`, the AC40 was 2.98 µM.
Then `Cc1ccc(-n2sc3cc(F)ccc3c2=O)c(C)c1`, with 1.94 µM.
Then `Cc1cccc(-c2ccc(C3[C@@H]4CN(Cc5cccc(F)c5)C[C@H]3N4)cc2)c1` (stereo partly specified), with 12.3 µM and 2.97 µM; and `CN(Cc1c(C(=O)N/N=C/c2ccccc2O)nnn1-c1nonc1N)C1CCCCC1`, with 9.53 µM.
Then `COc1ccc(Br)cc1C(=O)Nc1cc(C)cc(C)c1`, with 7.63 µM; and `Cc1cc(C)c2nc(N(CCCN(C)C)C(=O)c3ccc4c(c3)CCCC4)sc2c1`, with 6.21 µM; and `COc1ccc(NC(=O)c2csc(C)c2)cc1OC`, with > 35 µM (inactive).
For `CCOC(=O)c1nc(SC)n(C)c1C(=O)OCC`, the AC40 was 4.49 µM.
Then `COc1cccc(CN2C[C@@H]3N[C@H](C2)C3c2ccc(-c3ccccc3OC)cc2)c1` (stereo partly specified), with 7.9 µM; and `Fc1cccc(-c2ccc(C3[C@@H]4CN(Cc5ccccc5F)C[C@H]3N4)cc2)c1` (stereo partly specified), with 5.28 µM.
Then `COc1ccccc1C(=O)NC(=S)Nc1ccc2[nH]c(=O)[nH]c2c1`, with 25.1 µM; and `CCOCCCNC(=O)c1oc2ccc3c(c2c1C)C(O)CC(C)(C)O3` (stereo unspecified), with 5.92 µM; and `COC(=O)c1ccc(C(=O)Nc2cc(Cl)ccc2Cl)cc1NC(=O)c1ccccc1C`, with 2.43 µM.
Then `N#Cc1ccc(-c2ccc([C@@H]3[C@H]4CNC[C@@H]3N4Cc3cc(F)ccc3F)cc2)cc1`, with 16 µM; and `CCc1ccc(-c2c(C)sc(NC(=O)C3CCC3)c2C#N)cc1`, with 5.78 µM.
Turning to `Cc1ccc(S(=O)(=O)N2C[C@@H]3N[C@H](C2)C3c2ccc(/C=C/c3ccccc3)cc2)cc1` (stereo partly specified), the AC40 was 7.9 µM.
As for `Cc1cc(C)nc(NS(=O)(=O)c2ccc(N/C=C/C(=O)c3ccc(Cl)c(Cl)c3)cc2)n1`, the AC40 is 3.7 µM.
Turning to `CCOC(=O)c1c(NC(=O)Cn2nc(C(F)(F)F)cc2C)sc(C)c1C`, the AC40 was 9.34 µM.
For the compound `COc1ccc(Br)cc1C(=O)Nc1cccc(C)c1`, the AC40 is 11.6 µM.
Then `Cc1ccc(-c2cc(C(=O)NCc3cnn(C)c3)c3cc(Br)ccc3n2)cc1`, with 3.7 µM.
Then `O=c1c2ccccc2sn1-c1ccc(F)cc1`, with 7.1 µM; and `CNc1ccc2ncc(-c3ccc(OC)c(OC)c3)n2n1`, with 7.77 µM; and `Cc1ccc(-c2nnc3sc(-c4ccncc4)nn23)cc1`, with 13.5 µM.
For `CCn1cc(S(=O)(=O)NCCc2ccc(OC)c(OC)c2)cn1`, the AC40 was 3.87 µM.
Then `COc1ccc(-c2ccc(SCc3ccccn3)nn2)cc1OC`, with 6.41 µM.
Consider `O=C(COc1ccc2c(c1)OCO2)Nc1ccc2c(c1)oc1ccccc12`, for which the AC40 is 16.4 µM.
Then `c1ccc(-c2nnc3ccc(N4CCC5(CC4)OCCO5)nn23)cc1`, with > 35 µM (inactive).
`O=C(CCN1CCOCC1)c1ccc2c(c1)OCCO2`: the AC40 is 14.5 µM.
Then `FC(F)(F)c1cc(CCN2CCNC[C@@H]2c2ccccc2)cc(C(F)(F)F)c1`, with 6.96 µM.
With `CCCCc1c(-c2ccccc2F)ncn1CCc1ccccc1OC`, the AC40 was 7.64 µM.
Turning to `COc1ccc(C(CCNCc2ccc(OC(C)C)cc2)C(C)C)cc1` (stereo unspecified), the AC40 is 21.7 µM.
Then `N#Cc1c(N)n(C2CCCCC2)c2nc3ccccc3nc12`, with 18.9 µM; and `CC1(Cc2ccc(C(F)(F)F)o2)C(=O)Nc2ccc(-c3cccc(C(F)(F)F)c3)cc21` (stereo unspecified), with 8.84 µM.
Then `C=CCn1c(-c2csc(-c3ccc(OC)c(OC)c3)n2)n[nH]c1=S`, with 1.01 µM; and `N#Cc1cccc(-c2ccc(C3[C@H]4CNC[C@@H]3N4Cc3cc(-c4ccccc4)on3)cc2)c1` (stereo partly specified), with 12 µM; and `N/C(=N\OC(=O)COc1ccc(Cl)cc1Cl)c1cccnc1`, with 29.8 µM.
Then `COc1nc(N2CCOCC2)nc(-n2cccc2)n1`, with 0.937 µM; and `COc1ccc(C)cc1NCc1cc(=O)oc2cc(-c3ccccc3)c(O)cc12`, with 15.8 µM; and `OC[C@@H]1[C@@H](c2ccc(C#CC3CCCC3)cc2)[C@H]2CN(CCC(F)(F)F)CCCCN12`, with 8.56 µM.
Turning to `CCCCc1ccc(NC(=O)COc2ccc(C(=O)Nc3ccccc3OCC)cc2)cc1`, the AC40 was 2.88 µM.
Then `O=C(NCC1OCCc2ccccc21)c1ccc(NC(=O)c2ccc(Cl)cc2Cl)cc1` (stereo unspecified), with 20.4 µM; and `N#Cc1c(-c2cccc(Br)c2)cc(-c2cccnc2)nc1N`, with 5.82 µM; and `Cc1cc2c(cc1C)CSC(c1c(O)ccc3ccccc13)SC2`, with 10.9 µM.
Then `CCC1OC(C2CC2)CC2=C1C(=O)OC(C)(C)O2` (stereo unspecified), with 4.79 µM; and `COC(=O)C1=C(C)N(Cc2cccc(C(F)(F)F)c2)C(=NCc2ccc(OC)cc2)NC1c1cccc(Cl)c1` (stereo unspecified), with 9.96 µM.
Then `CC(C)(C)c1ccc(OCC(=O)Nc2ccc(-c3nc4cccnc4o3)cc2)cc1`, with 9.2 µM; and `Cc1c(CC(=O)O)c(=O)oc2c(C)c(OCc3ccccc3Br)ccc12`, with > 35 µM (inactive).
Turning to `CCCCCc1c(Cc2ccccc2)ncn1CCc1ccccc1OC`, the AC40 is 12.3 µM.
Then `CC1CC1C(=O)Nc1cc(C(F)(F)F)ccc1N1CCOCC1` (stereo unspecified), with 1.46 µM.
Take `CC(C)CC(NC(=O)c1ccc(Cl)cc1)C(=O)OCC(=O)c1ccc2c(c1)NC(=O)CO2` (stereo unspecified): the AC40 was 2.36 µM.
As to `Cc1ccc2nc(-c3ccc(NC(=O)COC(=O)c4ccco4)cc3)sc2c1`, the AC40 was 4.42 µM.
Then `CCc1c(C)sc(NC(=O)c2cc(-c3ccc(OC)c(OC)c3)on2)c1C#N`, with 9.5 µM.
Then `C/C(=N/NC(=O)c1ccc(Br)s1)c1ccncc1`, with > 35 µM (inactive); and `Oc1ccccc1C1SC(c2ccccc2O)SC(c2ccccc2O)S1` (stereo unspecified), with 6.08 µM; and `O=C(Nc1ccc(F)cc1)Nc1cc(OCC(F)(F)F)cc(OCC(F)(F)F)c1`, with 7.63 µM.
As to `CCC(C)Sc1cccc(-c2nc3cnccn3c2NC2CCCCC2)c1` (stereo unspecified), the AC40 is 5.37 µM.
Turning to `COc1ccc(OC)c(NC(=O)c2cc3c(Cl)nc4ccccc4c3s2)c1`, the AC40 was 10.2 µM.
`Cc1ccccc1-c1ccc(C2[C@@H]3CN(C(=O)Nc4cccc(F)c4)C[C@H]2N3)cc1` (stereo partly specified): the AC40 was 8.64 µM.
Then `COc1ccc(C2CC(=O)Nc3sc(=N)c4c(N)c(C#N)c(N)nc4c32)cc1OC` (stereo unspecified), with 6.1 µM.
For `CC(NC(=O)COC(=O)c1ccccc1Nc1ccccc1)c1ccccc1` (stereo unspecified), the AC40 is 12.2 µM.
Then `NC(c1csc(Nc2ccc(C(F)(F)F)cn2)n1)C1CCCCC1` (stereo unspecified), with 9.81 µM; and `CCn1c(O)c(/C=N/N=C/c2ccc(OC)cc2)c2cc(C3=NNC(=O)CC3)ccc21`, with 4.21 µM.
Then `CCOC(=O)c1c(-c2ccc(-c3ccccc3)cc2)csc1NC(=O)CNCCN(C)C`, with 8.58 µM; and `CC(C)CC#Cc1ccc2c(c1)O[C@@H](CN(C)Cc1ccccc1)[C@H](C)CN([C@H](C)CO)S2(=O)=O`, with 9.77 µM.
Then `CC1(Cc2cc(Cl)ccc2C(F)(F)F)C(=O)Nc2cc(C(F)(F)F)ccc21` (stereo unspecified), with 34 µM.
On to `CCCCCCCOC(=O)c1nc(Cl)c(Cl)c(N)c1Cl`, for which the AC40 is 14.5 µM.
Then `Cc1cc(C)c2oc(C(=O)Nc3ccc(S(=O)(=O)Nc4nccc(C)n4)cc3)cc(=O)c2c1`, with 8.73 µM; and `CC(C)(C)c1cc(NCCCn2ccnc2)n2ncc(-c3ccc(Cl)cc3)c2n1`, with 6.19 µM; and `Fc1ccccc1/C=N/n1c(C2CCCCC2)n[nH]c1=S`, with 18.5 µM.
Then `COc1ccc(-c2nc(-c3cccnc3)no2)cc1OC`, with > 35 µM (inactive); and `Cc1c(O)cnc2nn(-c3ccccc3)c(=N)n12`, with > 35 µM (inactive); and `Cc1ccc(CNc2nc(NCc3ccccc3)nc3ccsc23)c(C)c1`, with 19.2 µM.
With `O=C1Nc2cnc(Cl)nc2Nc2ccccc21`, the AC40 is > 35 µM (inactive).
Then `CCOC(=O)[C@]12Cc3cc(OC)ccc3[C@H]1N(C1CCCCC1)C(=O)c1cc(OC)ccc12`, with 12 µM.
Then `CC(C)Nc1nc(NC(C)(C)C)nc(Oc2ccc(=O)n(C)n2)n1`, with 29.2 µM; and `COc1ccc(C#Cc2ccc([C@@H]3[C@@H](CO)N4CCCCN(Cc5ccccc5F)C[C@@H]34)cc2)cc1`, with 14.3 µM.
Then `O=C(OCC12CC3CC(CC(C3)C1)C2)c1ccc(NCc2cc(O)ccc2O)cc1`, with 14.9 µM; and `Cc1cc(Cl)ccc1Oc1nc(-c2ccccc2)ncc1S(C)(=O)=O`, with 4.28 µM; and `CC(=O)N(/N=C/c1cccc(C)c1)c1nc(-c2ccc(Br)cc2)cs1`, with 5.72 µM.
Take `CC(=O)N(C1CC(C)C(C#N)(C#N)C1(C#N)C#N)N(C)C` (stereo unspecified): the AC40 is 1.85 µM.
Then `Cc1nc(NC(=O)c2cccc(-c3cc4ccccc4oc3=O)c2)ccc1Br`, with 12.7 µM.
Then `O=S(=O)(Nc1ccc(-c2ccc3nncn3n2)cc1)c1ccccc1Cl`, with 15.2 µM.
Then `C=CCn1cc(Cl)cc(C(=O)Nc2ccccc2)c1=O`, with 19.7 µM.
As for `CCNC(=O)NC(=O)C(C)OC(=O)c1oc2ccccc2c1CSC1CCCCC1` (stereo unspecified), the AC40 was 5.51 µM.
Then `COC(=O)c1ccc(C2C(Oc3ccc(OC)cc3)C(=O)N2CCc2ccc(F)cc2)cc1` (stereo unspecified), with 12.6 µM; and `Cc1ccc(OCC(=O)NC(=S)Nc2cccc(NC(=O)c3ccccc3)c2)cc1`, with 11.3 µM.
Then `CCCCc1c(Cc2cccc(F)c2)ncn1CCc1ccccc1OC`, with 12.3 µM; and `CC(C)CC#Cc1ccc2c(c1)O[C@H](CN(C)C(=O)C1CCCCC1)[C@@H](C)CN([C@@H](C)CO)S2(=O)=O`, with 10.2 µM.
Then `CN1CCN(C2Cc3ccccc3Sc3cc(C(F)(F)F)ccc32)CC1` (stereo unspecified), with 16 µM.
`CCOC(=O)c1ccccc1NC(=O)c1n[nH]c(=O)c2ccccc12`: the AC40 is 5.47 µM.
Then `Cc1nc2c(=O)n(C)c(=O)n(C)c2nc1Cl`, with 25.8 µM; and `COc1ccccc1CCn1cnc(-c2cccc(F)c2)c1C(C)C`, with 14 µM; and `CN(C)CCNC(=O)c1cccc(-c2cc(NC=O)c3ncc(-c4cccc(C(F)(F)F)c4)n3c2)c1`, with 24.4 µM.
Then `CNc1nc(-c2ccccc2)[n+](-c2ccc(C)cc2)s1`, with 2.16 µM; and `O=c1c2ccccc2nc(-c2ccco2)n1/N=C/c1ccccc1O`, with 14.7 µM.
Then `CCCCCCN1C[C@H](n2cc(COC(=O)c3ccccc3)nn2)[C@@H](O)C[C@@H]1c1ccc(C)cc1`, with 6.42 µM.
